Laboratory results as given in patent US6451738B1, “Substituted thienyl(Amino)-sulphonyl(thio)ureas as herbicides” (Bayer Aktiengesellschaft, priority 1996, dated 2002).

Experiments:
Abutilon [1] = assay: Pre-emergence Test/Greenhouse; type: in vivo; settings: 60 g of ai./ha, after three weeks, 0%=no effect, 100%=total destruction
Description: (§1) Solvent: 5 parts by weight of acetone
(§2) Emulsifier: 1 part by weight of alkylaryl polyglycol ether
(§3) To produce a suitable preparation of active compound, 1 part by weight of active compound is mixed with the stated amount of solvent, the stated amount of emulsifier is added and the concentrate is diluted with water to the desired concentration.
(§4) Seeds of the test plants are sown in normal soil. After about 24 hours, the soil is sprayed with the preparation of active compound in such a way as to apply the particular amounts of active compound desired per unit area. The concentration of the spray liquor is chosen so that the particular amounts of active compound desired are applied in 1000 l of water/ha.
(§5) After three weeks, the degree of damage to the plants is rated in % damage in comparison with the development of the untreated control.
(§6) 0%=no effect (like untreated control)

Amaranthus [2] = assay: Pre-emergence Test/Greenhouse; type: in vivo; settings: 504 h, after three weeks, 0%=no effect, 100%=total destruction, read-out: degree of damage, Amaranthus; for pest or weed control at 60 g/ha: 60 g of ai./ha; for pest or weed control at 125 g/ha: 125 g of ai./ha
Description: as §1, §2, §3, §4, §5, §6

Sinapis [3] = assay: Pre-emergence Test/Greenhouse; type: in vivo; settings: after three weeks, 0%=no effect, 100%=total destruction
Description: as §1, §2, §3, §4, §5, §6

weeds [4] = assay: Pre-emergence Test; type: in vivo; settings: in words
Description: as §1, §2, §3, §4, §5, §6

Abutilon [5] = assay: Post-emergence Test/Greenhouse; type: in vivo; settings: 60 g of ai./ha, after three weeks, 0%=no effect, 100%=total destruction
Description: as §1, §2, §3
as §4, with “Test plants which have a height” for “Seeds”, “5-15 cm” for “the test plants”, “are” for “are sown in normal soil. After about 24 hours, the soil is”
(§7) After three weeks, the degree of damage to the plants is rated in % damage in comparison to the development of the untreated control.
as §6

Amaranthus [6] = assay: Post-emergence Test/Greenhouse; type: in vivo; settings: 504 h, after three weeks, 0%=no effect, 100%=total destruction, read-out: degree of damage, Amaranthus; for pest or weed control at 60 g/ha: 60 g of ai./ha
Description: as §1, §2, §3
as §4, with “Test plants which have a height” for “Seeds”, “5-15 cm” for “the test plants”, “are” for “are sown in normal soil. After about 24 hours, the soil is”
as §7, §6

Sinapis [7] = assay: Post-emergence Test/Greenhouse; type: in vivo; settings: after three weeks, 0%=no effect, 100%=total destruction
Description: as §1, §2, §3
as §4, with “Test plants which have a height” for “Seeds”, “5-15 cm” for “the test plants”, “are” for “are sown in normal soil. After about 24 hours, the soil is”
as §7, §6

weeds [8] = assay: Post-emergence Test; type: in vivo; settings: in words
Description: as §1, §2, §3
as §4, with “Test plants which have a height” for “Seeds”, “5-15 cm” for “the test plants”, “are” for “are sown in normal soil. After about 24 hours, the soil is”
as §7, §6

Cyperus = assay: Pre-emergence Test/Greenhouse; type: in vivo; settings: 60 g of ai./ha, after three weeks, 0%=no effect, 100%=total destruction
Description: as §1, §2, §3, §4, §5, §6

Alopecurus [9] = assay: Post-emergence Test/Greenhouse; type: in vivo; settings: after three weeks, 0%=no effect, 100%=total destruction
Description: as §1, §2, §3
as §4, with “Test plants which have a height” for “Seeds”, “5-15 cm” for “the test plants”, “are” for “are sown in normal soil. After about 24 hours, the soil is”
as §7, §6

Alopecurus [10] = assay: Pre-emergence Test/Greenhouse; type: in vivo; settings: 4 g of ai./ha, after three weeks, 0%=no effect, 100%=total destruction
Description: as §1, §2, §3, §4, §5, §6

Barley = assay: Pre-emergence Test/Greenhouse; type: in vivo; settings: 4 g of ai./ha, after three weeks, 0%=no effect, 100%=total destruction
Description: as §1, §2, §3, §4, §5, §6

Chenopodium [11] = assay: Pre-emergence Test/Greenhouse; type: in vivo; settings: after three weeks, 0%=no effect, 100%=total destruction
Description: as §1, §2, §3, §4, §5, §6

Lolium = assay: Pre-emergence Test/Greenhouse; type: in vivo; settings: after three weeks, 0%=no effect, 100%=total destruction
Description: as §1, §2, §3, §4, §5, §6

Matricaria [12] = assay: Pre-emergence Test/Greenhouse; type: in vivo; settings: after three weeks, 0%=no effect, 100%=total destruction
Description: as §1, §2, §3, §4, §5, §6

Veronica = assay: Pre-emergence Test/Greenhouse; type: in vivo; settings: 4 g of ai./ha, after three weeks, 0%=no effect, 100%=total destruction
Description: as §1, §2, §3, §4, §5, §6

Wheat = assay: Pre-emergence Test/Greenhouse; type: in vivo; settings: after three weeks, 0%=no effect, 100%=total destruction
Description: as §1, §2, §3, §4, §5, §6

Chenopodium [13] = assay: Post-emergence Test/Greenhouse; type: in vivo; settings: 60 g of ai./ha, after three weeks, 0%=no effect, 100%=total destruction
Description: as §1, §2, §3
as §4, with “Test plants which have a height” for “Seeds”, “5-15 cm” for “the test plants”, “are” for “are sown in normal soil. After about 24 hours, the soil is”
as §7, §6

Matricaria [14] = assay: Post-emergence Test/Greenhouse; type: in vivo; settings: 60 g of ai./ha, after three weeks, 0%=no effect, 100%=total destruction
Description: as §1, §2, §3
as §4, with “Test plants which have a height” for “Seeds”, “5-15 cm” for “the test plants”, “are” for “are sown in normal soil. After about 24 hours, the soil is”
as §7, §6

Xanthium = assay: Post-emergence Test/Greenhouse; type: in vivo; settings: 60 g of ai./ha, after three weeks, 0%=no effect, 100%=total destruction
Description: as §1, §2, §3
as §4, with “Test plants which have a height” for “Seeds”, “5-15 cm” for “the test plants”, “are” for “are sown in normal soil. After about 24 hours, the soil is”
as §7, §6

Galium = assay: Pre-emergence Test/Greenhouse; type: in vivo; settings: after three weeks, 0%=no effect, 100%=total destruction
Description: as §1, §2, §3, §4, §5, §6

Setaria [15] = assay: Pre-emergence Test/Greenhouse; type: in vivo; settings: 60 g of ai./ha, after three weeks, 0%=no effect, 100%=total destruction
Description: as §1, §2, §3, §4, §5, §6

Echinochloa = assay: Pre-emergence Test/Greenhouse; type: in vivo; settings: 60 g of ai./ha, after three weeks, 0%=no effect, 100%=total destruction
Description: as §1, §2, §3, §4, §5, §6

Avena fatua = assay: Pre-emergence Test/Greenhouse; type: in vivo; settings: 125 g of ai./ha, after three weeks, 0%=no effect, 100%=total destruction
Description: as §1, §2, §3, §4, §5, §6

Setaria [16] = assay: Post-emergence Test/Greenhouse; type: in vivo; settings: 60 g of ai./ha, after three weeks, 0%=no effect, 100%=total destruction
Description: as §1, §2, §3
as §4, with “Test plants which have a height” for “Seeds”, “5-15 cm” for “the test plants”, “are” for “are sown in normal soil. After about 24 hours, the soil is”
as §7, §6

| Compound | melting point [°C] | pest or weed control at 60 g/ha (Amaranthus [2]) [%] | degree of damage, Sinapis (Sinapis [3]; 60 g of ai./ha) [%] | activity against weeds (weeds [4]) | degree of damage, Abutilon (Abutilon [5]) [%] | pest or weed control at 60 g/ha (Amaranthus [6]) [%] | degree of damage, Sinapis (Sinapis [7]; 60 g of ai./ha) [%] | activity against weeds (weeds [8]) | also measured |
| --- | --- | --- | --- | --- | --- | --- | --- | --- | --- |
| Cc1cc(C)nc(NC(=O)NS(=O)(=O)c2c(C)csc2C)n1 [Example 14] | 240 | 90 | 90 | very strong activity | – | 100 | 100 | strong activity | degree of damage, Cyperus (Cyperus): 100%; degree of damage, Alopecurus (Alopecurus [9]; 60 g of ai./ha): 80% |
| COc1nc(NC(=O)NS(=O)(=O)c2c(C)csc2C)nc(C2CC2)n1 [Example 10] | 180 | 80 | – | very strong activity | – | – | – | – | degree of damage, Galium (Galium; 60 g of ai./ha): 100%; degree of damage, Setaria (Setaria [15]): 80% |
| COc1cc(OC)nc(NC(=O)NS(=O)(=O)c2c(C)csc2C)n1 [Example 7] | 198 | – | – | very strong activity | 95 | 95 | – | strong activity | degree of damage, Chenopodium (Chenopodium [11]; 60 g of ai./ha): 90%; degree of damage, Echinochloa (Echinochloa): 95%; degree of damage, Lolium (Lolium; 60 g of ai./ha): 95%; degree of damage, Matricaria (Matricaria [12]; 60 g of ai./ha): 95%; degree of damage, Wheat (Wheat; 60 g of ai./ha): 10%; degree of damage, Chenopodium (Chenopodium [13]): 95%; degree of damage, Matricaria (Matricaria [14]): 95%; degree of damage, Xanthium (Xanthium): 95% |
| Cc1csc(C)c1S(=O)(=O)NC(=O)Nc1nc(Oc2ccccc2)nc(N(C)C)n1 [Example 8] | 173 | – | – | very strong activity | – | – | – | – | pest or weed control at 125 g/ha (Amaranthus [2]): 80%; degree of damage, Avena fatua (Avena fatua): 80%; degree of damage, Galium (Galium; 125 g of ai./ha): 90%; degree of damage, Sinapis (Sinapis [3]; 125 g of ai./ha): 80% |
| CSc1nc(C)nc(NC(=O)NS(=O)(=O)c2c(C)csc2C)n1 [Example 11] | 220 | – | – | – | – | 100 | 100 | strong activity | – |
| Cc1csc(C)c1S(=O)(=O)NC(=O)Nc1nc(OCC(F)(F)F)nc(N(C)C)n1 [Example 6] | 195 | – | – | very strong activity | – | – | – | strong activity | pest or weed control at 125 g/ha (Amaranthus [2]): 90%; degree of damage, Avena fatua (Avena fatua): 80%; degree of damage, Galium (Galium; 125 g of ai./ha): 100%; degree of damage, Sinapis (Sinapis [3]; 125 g of ai./ha): 90%; degree of damage, Alopecurus (Alopecurus [9]; 125 g of ai./ha): 100%; pest or weed control at 125 g/ha (Amaranthus [6]; 125 g of ai./ha): 80%; degree of damage, Sinapis (Sinapis [7]; 125 g of ai./ha): 100% |
| COc1cc(Cl)nc(NC(=O)NS(=O)(=O)c2c(C)csc2C)n1 [Example 16] | 219 | 95 | 95 | very strong activity | – | 100 | 95 | strong activity | degree of damage, Cyperus (Cyperus): 80% |
| COc1cc(C)nc(NC(=O)NS(=O)(=O)c2c(C)csc2C)n1 [Example 15] | 140 | 90 | 100 | very strong activity | 90 | 100 | 100 | strong activity | degree of damage, Abutilon (Abutilon [1]): 100%; degree of damage, Setaria (Setaria [16]): 90% |

More lines, main results first:

| melting point [°C] | Compound | pest or weed control at 60 g/ha (Amaranthus [2]) [%] | degree of damage, Sinapis (Sinapis [3]; 60 g of ai./ha) [%] | activity against weeds (weeds [4]) | degree of damage, Abutilon (Abutilon [5]) [%] | pest or weed control at 60 g/ha (Amaranthus [6]) [%] | degree of damage, Sinapis (Sinapis [7]; 60 g of ai./ha) [%] | activity against weeds (weeds [8]) | also measured |
| --- | --- | --- | --- | --- | --- | --- | --- | --- | --- |
| 168 | COc1nc(NC(=O)NS(=O)(=O)c2c(C)csc2C)nc(OC)n1 [Example 9] | 90 | 90 | very strong activity | 80 | 100 | 95 | strong activity | degree of damage, Abutilon (Abutilon [1]): 90% |
| 189 | COc1nc(C)nc(NC(=O)NS(=O)(=O)c2c(C)csc2C)n1 [Example 1, N-(4-methoxy-6-methyl-1,3,5-triazin-2-yl)-N′-(2,4-dimethyl-thien-3-yl-sulplhonyl)-urea] | – | – | very strong activity | 95 | 95 | – | strong activity | degree of damage, Alopecurus (Alopecurus [10]): 100%; pest or weed control at 4 g/ha (Amaranthus [2]; 4 g of ai./ha): 100%; degree of damage, Barley (Barley): 0%; degree of damage, Chenopodium (Chenopodium [11]; 4 g of ai./ha): 100%; degree of damage, Lolium (Lolium; 4 g of ai./ha): 100%; degree of damage, Matricaria (Matricaria [12]; 4 g of ai./ha): 100%; degree of damage, Veronica (Veronica): 100%; degree of damage, Wheat (Wheat; 4 g of ai./ha): 0%; degree of damage, Chenopodium (Chenopodium [13]): 100%; degree of damage, Matricaria (Matricaria [14]): 95%; degree of damage, Xanthium (Xanthium): 100% |
| 161 | CCc1nc(NC(=O)NS(=O)(=O)c2c(C)csc2C)nc(OC)n1 [Example 13] | – | – | – | 90 | 100 | 95 | strong activity | – |
